Data from patent US20140161915A1, “Solubilization of cucurminoid compounds and products thereof” (priority 2011, published 2014).

Key:
[1] = Curcumin dissolution in water (saturated), centrifuged supernatant read by UV-Vis at 405 nm; type: physicochemical
[2] = test system: 4-hydroxy-2-nonenal-mediated oxidative modification of a protein substrate; assay: Inhibition of 4-hydroxy-2-nonenal-mediated oxidative modification of a protein substrate; type: biochemical; details: heat-solubilized
[3] = test system: anti-Ro60 autoantibodies / Ro60 autoantigen; assay: Inhibition of binding of anti-Ro60 autoantibodies to Ro60 autoantigen; design: species or system human; details: heat-solubilized
[4] = test system: anti-spectrin / spectrin; assay: Inhibition of binding of commercial polyclonal anti-spectrin to spectrin; details: heat-solubilized
[5] = Stability of dissolved curcumin: hydrolysis at alkaline pH and precipitation over time; type: physicochemical; details: pressure-dissolved (15 psi, 121° C.) solution
Procedure: For solutions made at room temperature it is difficult to obtain a clear (i.e., solid-free) supernatant even from careful centrifuging. The samples are far more soluble in alkaline water (e.g., pH 7.6), but when placed in phosphate buffered saline (PBS) and serum-free media at modest alkaline pH (pH 7.2, at 37° C.) the curcuminoids are hydrolyzed substantially completely within 30 minutes.
Even so, UV-Visible spectra and mass specta (from matrix assisted laser desorption […] time of flight mass spectrometry, MALDI-TOF-MS) confirmed that the dissolved curcumin was substantially unchanged by the heat treatment. Heat treatment also appears to increase the solubilization of BDMC but (curiously) not DMC.
(§1) The autoclave cycle was 70 minutes, of which ˜40 minutes represent actual time under pressure.

[6] = cited from earlier work
[7] = Ingestion of aqueous solubilized curcumin by four adult males, reported effects; type: in vivo, human
Procedure: The study conditions were as follows.
This subject's study was conducted in a completely blind manner: the subject was told nothing about the known or suspected properties but was merely asked to report their observations.

[8] = test system: DNA; assay: Binding or intercalation to DNA; details: heat solubilized
[9] = Curcumin dissolution in water (saturated), centrifuged supernatant read by UV-Vis at 405 nm; type: physicochemical; remark: listed apart in the source
Procedure: as §1
That mixture was then combined with 47.5 mL of deionized water to make up a 50 mL solution.

[10] = 0.1% Tween-20, room pressure, 100° C. deionized water
[11] = 0.5% Tween-20, 15 psi, 121° C., deionized water
[12] = 2% Tween-20, room pressure, 100° C. deionized water
[13] = 15 psi, 121° C., deionized water, 5 mg/mL present
[14] = 0.1% Tween-20, 15 psi, 121° C., deionized water
[15] = 2% Tween-20, 15 psi, 121° C., deionized water

COc1cc(/C=C/C(=O)CC(=O)/C=C/c2ccc(O)c(OC)c2)ccc1O [curcumin, 1,7-bis[4-hydroxy-3-methoxyphenyl]-1,6-heptadiene-3,5-dione]
Dissolution (Approximate) Mass/mL [1, 10]: 22.5 µg/mL | Dissolution (Approximate) Molarity [1, 10]: 0.061 mM | Dissolution (Approximate) Mass/mL [1, 11]: 278.1 µg/mL | Dissolution (Approximate) Mass/mL ([1]; 0.5% Tween-20, room pressure, 100° C. deionized water): 77.44 µg/mL | Dissolution (Approximate) Mass/mL [1, 12]: 443.52 µg/mL | Dissolution (Approximate) Molarity [1, 12]: 1.2 mM | Dissolution (Approximate) Molarity [1, 13]: 0.68 mM | Inhibition of 4-hydroxy-2-nonenal-mediated oxidative modification of a protein substrate [2]: 80% | Inhibition of binding of anti-Ro60 autoantibodies to Ro60 autoantigen ([3]; Sjögren's syndrome sera): up to 43% | Inhibition of binding of anti-Ro60 autoantibodies to Ro60 autoantigen ([3]; systemic lupus erythematosus (SLE) sera): up to 52% | Inhibition of binding of commercial polyclonal anti-spectrin to spectrin [4]: 50% | Precipitation or turbidity of the solution over time [5]: did not precipitate out or cause the solution to become cloudy or turbid | Reduction in pristine curcumin ([5]; alkaline pH for 72 hours): 32% | Increase in solubility by heat treatment over unheated ([6]; Kurien et al. (2007): boiling deionized water): 12 fold | Solubility of curcumin itself ([6]; deionized water at room temperature, dissolved material is DMC and BDMC): insoluble | Duration of relief from metatarsal arthritic inflammation ([7]; Subject #3, about 100 kg, 20 mL of 350 micromolar sample (autoclave, 5% ethanol), ingested): about 48 hours | Effect on mood ([7]; four adult males, 5-20 mL of 150-350 micromolar autoclaved aqueous curcumin, ingested): mood elevating effects | Onset of mood elevating effects ([7]; four adult males, ingested autoclaved aqueous curcumin): almost instantaneously | Intercalation into or binding to DNA [8]: does not intercalate into or otherwise bind to DNA | Dissolution (Approximate) Mass/mL [9, 14]: 44.84 µg/mL | Dissolution (Approximate) Molarity [9, 14]: 0.12 mM | Dissolution (Approximate) Molarity [9, 11]: 0.75 mM | Dissolution (Approximate) Mass/mL [9, 15]: 1556 µg/mL | Dissolution (Approximate) Molarity [9, 15]: 4.2 mM | Increase over curcumin dissolved at ambient temperature ([9]; 15 psi, 121° C., 5% ethanol in deionized water): ~100 fold | Dissolved share of the original amount ([9]; 15 psi, 121° C., 5% ethanol in deionized water, made up to 50 mL): about 12.9% | Dissolved share of the curcumin initially present [9, 13]: 5% | Solubilized share of starting curcumin ([9]; autoclaved in water with 2% of a poly(alkyl ether), 50 mL starting solution): 31%
